# Measurements taken from patent publication US8846949B2, “Pyrrolopyrazoles as N-type calcium channel blockers” (Janssen Pharmaceutica NV, priority 2012, dated 2014).
# Where two headings read alike, the source gives them in different places.
# What was measured:
# [1] = target: T1, N-type calcium channel α1B (Cav2.2), β3 and α2δ subunits (Homo sapiens, UniProt Q00975); experiment: Functional assay, antagonism of N-type calcium channel (FDSS calcium mobilization response to KCl depolarization); type: cell-based; details: for IC50: HEK stable cell line, 50 mM KCl depolarization, six-point concentration-response
# T1 construct: expressed in transfected cells
# Protocol: A stable cell line (HEK parent) co-expressing the α1B (Cav2.2), β3 and α2δ subunits of the N-type calcium channel subunits was used. These cells were routinely grown as monolayers in low glucose-containing Dulbecco's Modified Eagle Medium supplemented with 10% FBS, 2 mM L-glutamine, 100 I.U./mL penicillin, 100 μg/mL streptomycin, 400 μg/mL G418 and 200 μg/mL Zeocin (split ratio=1:5). Cells were maintained in 5% CO2 at 37° C. Compounds of Formula (I) were prepared as 10 mM stocks in DMSO from neat compound, if available. Otherwise, the 5 or 10 mM DMSO stock solutions provided in-house were used.
# Calcium mobilization responses to KCl depolarization were evaluated by measuring the intensity of calcium-mediated fluorescent signal in the presence of BD Calcium Assay Dye (BD Biosciences, Franklin Lakes, N.J., U.S.A.), utilizing a Functional Drug Screening System (FDSS) by Hamamatsu Corporation (Bridgewater, N.J. U.S.A.).
# Twenty-four hr prior to assay, cells were seeded in clear-base poly-D-lysine-coated 384-well plates (BD Biosciences) at a density of 5,000 cells per well in culture medium and grown overnight in 5% CO2 at 37° C. On the day of assay, growth media were removed, and cells were loaded with BD calcium assay dye (BD Biosciences) for 35 min at 37° C. under 5% CO2 and then for 25 min at room temp. Utilizing the FDSS, cells were exposed to representative compounds of Formula (I) at varying concentrations, and intracellular calcium was measured for 5 min prior to the addition of 50 mM KCl for an additional 3 min of measurement.
# IC50 values for representative compounds of Formula (I) were determined from six-point concentration-response experiments and represent the concentration of said compound required to inhibit 50% of the maximal response. Maximal fluorescence intensity (FI) achieved upon addition of 50 mM KCl was exported from the FDSS software and further analyzed using GraphPad Prism 3.02 (Graph Pad Software Inc., San Diego, Calif., U.S.A.). Data were normalized to the maximum average counts from quadruplicate wells for each condition in the presence of 50 mM KCl and to the minimum average counts in the presence of buffer. Theoretical curves were generated using nonlinear regression curve-fitting analysis of either sigmoidal concentration-response or sigmoidal concentration-response (variable slope), and the IC50 values with the best-fit curve determined by GraphPad Prism were reported.
# N-type calcium channel = target: T2, N-type calcium channel (Homo sapiens, UniProt Q00975); experiment: Automated electrophysiology assay (QPatch-HT whole-cell patch clamp); type: cell-based
# T2 construct: expressed in transfected cells
# Protocol: Cells were grown in T175 flasks to 50%-90% confluence. At the time of use, cells were enzymatically treated with Detachin (Genlantis, San Diego, Calif. USA), centrifuged, rinsed, and resuspended in 293 SFM II media (Life Technologies, Grand Island, N.Y. U.S.A.) supplemented with 25 mM HEPES (Sigma-Aldrich, St. Louis, Mo. U.S.A.) to a concentration of 2-3×10^6 cells/mL. Cells were added to the automated cell preparation station on the QPatch-HT (Sophion Biosciences, North Brunswick, N.J. U.S.A.), and following a 10- to 30-min recovery period with gentle stirring, the assay protocol was initiated. During the automated cell preparation, cells were collected, centrifuged and resuspended in an extracellular (EC) solution containing 132 mM NaCl, 1.8 mM CaCl2, 5.4 mM KCl, 0.8 mM MgCl2, 10 mM glucose, and 10 mM HEPES (pH=7.4), adjusted with sucrose to approximately 315 m0sm. The QPlate was primed with an intracellular solution containing 135 mM CsCl, 10 mM EGTA, 4 MgATP, 0.3 NaGTP, and 20 mM HEPES (pH=7.2), adjusted to approximately 290 m0sm with deionized water and the EC solution. Cells were added to the prepared QPlate wells by robotic pipettes of the QPatch-HT.
# For cells determined to be in stable whole-cell patch clamp, the EC solution was replaced with a barium (Ba)/triethylammonium (TEA) solution containing 140 mM TEA-Cl, 10 mM BaCl2, 0.8 mM MgCl2, 10 mM glucose and 10 mM HEPES (pH=7.4). High (40 mM) BaCl2 concentrations were made with adjustments to TEA-C1 (90 mM) to maintain the osmolarity. From a resting potential of −80 mV, a train of depolarizing pulses (15 pulses at 5 Hz, +20 mV) was delivered to the cell once every 30 sec for eight trains (4 min total), and the resulting currents were measured during a control period (no compound). This protocol was repeated for each subsequent addition of control buffer with or without compound (three periods total, each with four trains). The current generated in the 1st and 15th pulses of the last train of each period in the presence of each drug concentration was normalized to the current generated during the control period at the respective pulses (representing low- and high-frequency stimulation, respectively). Data from both the second and third drug application periods were analyzed for each cell. A final addition of Ba/TEA solution containing 60-100 μM CdCl2 was made to block all N-type current and to “zero” the currents for each cell. All buffer/compound additions were made using a “spitting” feature of the QPatch-HT, which added three repetitions of 5 μL solution at the beginning of each recording period.
# To examine closed-state inactivation, cells were subjected to a channel-activating 50-msec depolarizing step pulse from −80 to +10 mV, followed by a 5-sec nonactivating step to voltages ranging from −130 to −60 mV in 10 mV increments and then a 50-ms step from −80 to +10 mV to assess the remaining current. Currents from the activating voltage pulse were normalized to the peak value of the test pulse following the −130 mV step and fit to a Boltzman equation to obtain the V1/2. Roscovitine (Sigma-Aldrich) was prepared as a 100 mM stock in dimethyl sulfoxide and diluted to the indicated working concentrations. […]. Compounds of Formula (I) were diluted first into dimethyl sulfoxide and then into 10% pluronic F-127 in water (Life Technologies), sonicated for 1 min and diluted into EC buffer. Vehicle controls were run in parallel in all experiments.
# Unless otherwise indicated, statistics for comparing among electrophysiological results utilized a one-way analysis of variance with Fisher's least squares determination test for pair-wise comparison.
# [2] = high frequency (15th pulse of train, 5 Hz), read-out: QPatch at High Frequency % Inhibition
# [3] = low frequency (1st pulse of train), read-out: QPatch at Low Frequency % Inhibition
# [4] = 1 μM, high frequency (15th pulse of train, 5 Hz), read-out: QPatch at High Frequency % Inhibition
# [5] = 1 μM, low frequency (1st pulse of train), read-out: QPatch at Low Frequency % Inhibition
# T2 sequence (Q00975 whole entry): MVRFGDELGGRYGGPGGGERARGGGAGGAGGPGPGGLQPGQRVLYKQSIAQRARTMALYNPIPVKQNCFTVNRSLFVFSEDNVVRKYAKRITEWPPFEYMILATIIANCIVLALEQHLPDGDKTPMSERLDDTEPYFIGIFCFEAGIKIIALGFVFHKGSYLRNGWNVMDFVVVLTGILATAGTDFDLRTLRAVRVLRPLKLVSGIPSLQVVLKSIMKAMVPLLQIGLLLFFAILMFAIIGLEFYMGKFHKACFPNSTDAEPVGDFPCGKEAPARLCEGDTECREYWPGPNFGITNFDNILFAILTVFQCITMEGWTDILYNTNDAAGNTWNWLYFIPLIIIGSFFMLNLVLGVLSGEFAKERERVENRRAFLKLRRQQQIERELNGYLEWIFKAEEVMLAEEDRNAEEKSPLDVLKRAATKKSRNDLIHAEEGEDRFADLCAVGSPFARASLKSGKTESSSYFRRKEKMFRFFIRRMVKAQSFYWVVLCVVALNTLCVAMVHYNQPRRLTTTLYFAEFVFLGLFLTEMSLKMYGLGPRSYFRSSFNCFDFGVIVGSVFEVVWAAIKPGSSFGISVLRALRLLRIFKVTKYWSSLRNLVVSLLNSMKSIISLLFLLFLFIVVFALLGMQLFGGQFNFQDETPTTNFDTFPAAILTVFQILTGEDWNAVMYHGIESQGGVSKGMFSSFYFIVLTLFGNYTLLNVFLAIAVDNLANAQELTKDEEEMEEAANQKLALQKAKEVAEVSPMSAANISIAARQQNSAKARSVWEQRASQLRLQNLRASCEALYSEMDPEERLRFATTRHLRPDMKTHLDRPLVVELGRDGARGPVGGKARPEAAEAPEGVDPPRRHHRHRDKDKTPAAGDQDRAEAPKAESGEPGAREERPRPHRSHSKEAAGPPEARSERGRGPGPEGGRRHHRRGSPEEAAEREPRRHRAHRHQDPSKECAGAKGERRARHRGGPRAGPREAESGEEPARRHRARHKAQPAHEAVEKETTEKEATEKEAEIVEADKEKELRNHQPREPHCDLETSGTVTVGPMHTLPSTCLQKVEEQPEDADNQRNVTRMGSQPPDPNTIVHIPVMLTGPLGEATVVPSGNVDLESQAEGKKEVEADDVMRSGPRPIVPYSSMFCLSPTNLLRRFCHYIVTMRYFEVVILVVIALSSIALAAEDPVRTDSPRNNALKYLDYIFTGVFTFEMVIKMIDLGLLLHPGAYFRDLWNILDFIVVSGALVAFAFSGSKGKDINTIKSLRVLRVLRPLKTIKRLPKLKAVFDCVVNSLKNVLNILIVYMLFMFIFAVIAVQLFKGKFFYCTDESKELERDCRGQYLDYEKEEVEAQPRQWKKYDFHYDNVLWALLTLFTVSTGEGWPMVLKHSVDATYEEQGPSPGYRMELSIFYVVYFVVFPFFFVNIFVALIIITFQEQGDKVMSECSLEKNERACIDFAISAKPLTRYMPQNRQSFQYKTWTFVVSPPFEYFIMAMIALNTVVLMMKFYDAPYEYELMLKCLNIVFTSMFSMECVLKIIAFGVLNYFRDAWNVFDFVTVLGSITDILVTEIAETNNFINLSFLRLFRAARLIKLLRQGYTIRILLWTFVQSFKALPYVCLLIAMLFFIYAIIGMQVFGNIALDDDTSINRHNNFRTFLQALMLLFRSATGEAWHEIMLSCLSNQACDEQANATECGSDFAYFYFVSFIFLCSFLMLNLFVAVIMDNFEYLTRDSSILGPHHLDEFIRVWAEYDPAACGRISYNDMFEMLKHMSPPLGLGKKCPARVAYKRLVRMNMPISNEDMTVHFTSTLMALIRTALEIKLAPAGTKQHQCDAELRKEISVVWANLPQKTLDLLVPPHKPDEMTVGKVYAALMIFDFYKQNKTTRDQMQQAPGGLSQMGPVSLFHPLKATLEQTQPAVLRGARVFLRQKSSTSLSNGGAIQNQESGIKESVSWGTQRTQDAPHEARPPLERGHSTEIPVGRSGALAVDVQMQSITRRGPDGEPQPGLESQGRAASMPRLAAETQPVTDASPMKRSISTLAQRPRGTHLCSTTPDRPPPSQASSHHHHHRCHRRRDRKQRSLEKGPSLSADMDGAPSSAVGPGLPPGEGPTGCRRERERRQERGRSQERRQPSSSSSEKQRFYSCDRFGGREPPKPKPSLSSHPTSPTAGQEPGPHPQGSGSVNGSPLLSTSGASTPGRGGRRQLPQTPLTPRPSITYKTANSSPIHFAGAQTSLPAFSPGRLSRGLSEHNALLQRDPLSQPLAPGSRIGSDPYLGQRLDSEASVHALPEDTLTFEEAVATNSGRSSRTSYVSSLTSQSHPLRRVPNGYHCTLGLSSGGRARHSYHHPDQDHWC
# T2 sequence (P54284 whole entry partner): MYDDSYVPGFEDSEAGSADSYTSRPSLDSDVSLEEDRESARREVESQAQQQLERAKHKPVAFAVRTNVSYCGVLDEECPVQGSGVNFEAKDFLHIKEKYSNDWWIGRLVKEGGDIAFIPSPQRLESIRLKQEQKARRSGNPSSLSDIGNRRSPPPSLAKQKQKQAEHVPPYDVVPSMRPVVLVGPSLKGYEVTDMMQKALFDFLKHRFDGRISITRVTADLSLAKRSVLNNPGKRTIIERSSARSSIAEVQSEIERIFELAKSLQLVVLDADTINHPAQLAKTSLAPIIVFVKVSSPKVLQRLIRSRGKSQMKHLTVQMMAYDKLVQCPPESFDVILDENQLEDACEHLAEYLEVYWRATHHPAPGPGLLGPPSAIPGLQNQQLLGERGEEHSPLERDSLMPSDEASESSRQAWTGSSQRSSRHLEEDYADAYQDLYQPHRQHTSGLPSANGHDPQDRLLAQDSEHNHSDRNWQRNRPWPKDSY
# T2 sequence (P54289 25-956 partner limits assumed): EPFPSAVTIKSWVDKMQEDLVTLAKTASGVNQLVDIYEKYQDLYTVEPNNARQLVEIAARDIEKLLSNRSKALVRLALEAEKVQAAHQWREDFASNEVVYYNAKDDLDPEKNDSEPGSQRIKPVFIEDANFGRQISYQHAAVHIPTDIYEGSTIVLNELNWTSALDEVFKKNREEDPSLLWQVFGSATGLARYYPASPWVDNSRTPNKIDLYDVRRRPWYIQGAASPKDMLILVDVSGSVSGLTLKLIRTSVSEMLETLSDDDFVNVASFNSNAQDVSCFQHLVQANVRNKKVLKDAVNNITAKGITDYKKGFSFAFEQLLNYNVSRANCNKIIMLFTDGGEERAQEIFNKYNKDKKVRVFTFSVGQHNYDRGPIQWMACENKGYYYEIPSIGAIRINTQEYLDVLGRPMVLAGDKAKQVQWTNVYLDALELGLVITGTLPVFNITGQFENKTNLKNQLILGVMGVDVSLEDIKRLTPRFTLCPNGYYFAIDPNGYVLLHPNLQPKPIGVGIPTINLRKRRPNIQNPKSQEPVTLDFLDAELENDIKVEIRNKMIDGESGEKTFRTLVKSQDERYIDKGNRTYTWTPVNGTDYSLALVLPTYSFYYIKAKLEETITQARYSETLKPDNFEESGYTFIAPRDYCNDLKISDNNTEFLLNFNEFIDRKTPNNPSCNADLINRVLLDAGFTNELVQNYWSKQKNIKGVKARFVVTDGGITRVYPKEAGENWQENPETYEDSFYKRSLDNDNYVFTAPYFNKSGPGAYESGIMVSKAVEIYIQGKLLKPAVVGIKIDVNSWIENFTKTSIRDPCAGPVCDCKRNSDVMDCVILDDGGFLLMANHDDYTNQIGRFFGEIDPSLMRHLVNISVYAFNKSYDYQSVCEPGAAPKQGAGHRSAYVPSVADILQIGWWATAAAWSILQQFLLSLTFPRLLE
# T2 sequence (P54289 957-1103 partner limits assumed): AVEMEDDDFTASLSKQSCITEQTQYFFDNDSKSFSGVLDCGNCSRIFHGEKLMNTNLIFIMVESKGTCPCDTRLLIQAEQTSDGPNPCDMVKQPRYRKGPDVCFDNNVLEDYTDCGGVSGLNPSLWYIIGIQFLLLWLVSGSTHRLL
# T1 sequence (Q00975 whole entry): as the sequence (Q00975 whole entry) above
# T1 sequence (P54284 whole entry partner): as the sequence (P54284 whole entry partner) above
# T1 sequence (P54289 25-956 partner limits assumed): as the sequence (P54289 25-956 partner limits assumed) above
# T1 sequence (P54289 957-1103 partner limits assumed): as the sequence (P54289 957-1103 partner limits assumed) above
SMILES,IC50 [1] [nM],inhibition at 1 µM (N-type calcium channel; [4]) [%],inhibition at 1 µM (N-type calcium channel; [5]) [%],further results
"COc1ccccc1-n1nc2c(c1-c1ccc(Cl)cc1)CN(S(=O)(=O)N1C[C@H](C)O[C@@H](C)C1)C2 (mixture of isomers) [Cpd 61, 3-(4-Chlorophenyl)-5-{[(2S,6S)-2,6-dimethylmorpholin-4-yl]sulfonyl}-2-(2-methoxyphenyl)-2,4,5,6-tetrahydropyrrolo[3,4-c]pyrazole]",5,,,inhibition at 0.1 µM (N-type calcium channel; [2]): 50%; inhibition at 0.1 µM (N-type calcium channel; [3]): 53%
"CCc1ccccc1-n1nc2c(c1-c1ccc(Cl)cc1)CN(S(C)(=O)=O)C2 [Cpd 2, 3-(4-Chlorophenyl)-2-(2-ethylphenyl)-5-(methylsulfonyl)-2,4,5,6-tetrahydropyrrolo[3,4-c]pyrazole]",85,22,-9,
"CCc1ccccc1-n1nc2c(c1-c1ccc(Cl)cc1)CN(C(=O)c1ccncc1)C2 [Cpd 5, 3-(4-Chlorophenyl)-2-(2-ethylphenyl)-5-(pyridin-4-ylcarbonyl)-2,4,5,6-tetrahydropyrrolo[3,4-c]pyrazole]",200,37,11,inhibition at 0.25 µM (N-type calcium channel; [2]): 12%; inhibition at 0.25 µM (N-type calcium channel; [3]): 0%
"CCc1ccccc1-n1nc2c(c1-c1ccc(Cl)cc1)CN(C(=O)C(F)(F)F)C2 [Cpd 6, 3-(4-Chlorophenyl)-2-(2-ethylphenyl)-5-(trifluoroacetyl)-2,4,5,6-tetrahydropyrrolo[3,4-c]pyrazole]",180,23,16,
"CCc1ccccc1-n1nc2c(c1-c1ccc(Cl)cc1)CN(C(=O)CNC(=O)OC(C)(C)C)C2 [Cpd 11, tert-Butyl{2-[3-(4-chlorophenyl)-2-(2-ethylphenyl)-2,6-dihydropyrrolo[3,4-c]pyrazol-5 (4H)-yl]-2-oxoethyl}carbamate]",100,68,37,inhibition at 0.25 µM (N-type calcium channel; [2]): 31%; inhibition at 0.25 µM (N-type calcium channel; [3]): 14%
"CS(=O)(=O)N1Cc2nn(-c3ccccc3OC(F)(F)F)c(-c3ccc(Cl)cc3)c2C1 [Cpd 20, 3-(4-Chlorophenyl)-5-(methylsulfonyl)-2-[2-(trifluoromethoxy)phenyl]-2,4,5,6-tetrahydropyrrolo[3,4-c]pyrazole]",40,30,5,
"CC(C)(C)OC(=O)NCC(=O)N1Cc2nn(-c3ccccc3OC(F)(F)F)c(-c3ccc(Cl)cc3)c2C1 [Cpd 22, tert-Butyl{2-[3-(4-chlorophenyl)-2-[2-(trifluoromethoxy)phenyl]-2,6-dihydropyrrolo[3,4-c]pyrazol-5(4H)-yl]-2-oxoethyl}carbamate]",240,28,13,
"FC(F)(F)Oc1ccccc1-n1nc2c(c1-c1ccc(Cl)cc1)CN(c1ccc3nc(Cl)ccc3c1)C2 [Cpd 27, 2-Chloro-6-[3-(4-chlorophenyl)-2-[2-(trifluoromethoxy)phenyl]-2,6-dihydropyrrolo[3,4-c]pyrazol-5(4H)-yl]quinoline]",93,,-1,
"COc1ccccc1-n1nc2c(c1-c1ccc(Cl)cc1)CN(C(=O)OC(C)(C)C)C2 [Cpd 28, tert-Butyl 3-(4-chlorophenyl)-2-(2-methoxyphenyl)-2,6-dihydropyrrolo[3,4-c]pyrazole-5(4H)-carboxylate]",73,,,inhibition at 1 µM (N-type calcium channel; read-out: QPatch at High Frequency % Inhibition): 52%; inhibition at 1 µM (N-type calcium channel; read-out: QPatch at Low Frequency % Inhibition): 25%
"COc1ccccc1-n1nc2c(c1-c1ccc(Cl)cc1)CN(S(C)(=O)=O)C2 [Cpd 30, 3-(4-Chlorophenyl)-2-(2-methoxyphenyl)-5-(methylsulfonyl)-2,4,5,6-tetrahydropyrrolo[3,4-c]pyrazole]",21,49,28,
"COc1ccccc1-n1nc2c(c1-c1ccc(Cl)cc1)CN(S(=O)(=O)C(C)C)C2 [Cpd 31, 3-(4-Chlorophenyl)-2-(2-methoxyphenyl)-5-[(1-methylethyl)sulfonyl]-2,4,5,6-tetrahydropyrrolo[3,4-c]pyrazole]",10,,,"inhibition at 0.33 µM ([1]; 0.33 μM compound, FDSS, 50 mM KCl): 94%; inhibition at 0.1 µM (N-type calcium channel; [2]): 47%; inhibition at 0.1 µM (N-type calcium channel; [3]): 11%"
"COc1ccccc1-n1nc2c(c1-c1ccc(Cl)cc1)CN(S(=O)(=O)C1CC1)C2 [Cpd 32, 3-(4-Chlorophenyl)-5-(cyclopropylsulfonyl)-2-(2-methoxyphenyl)-2,4,5,6-tetrahydropyrrolo[3,4-c]pyrazole]",21,83,74,inhibition at 0.03 µM (N-type calcium channel; [2]): -5%; inhibition at 0.03 µM (N-type calcium channel; [3]): -6%; inhibition at 0.05 µM (N-type calcium channel; [2]): 23%; inhibition at 0.05 µM (N-type calcium channel; [3]): 10%; inhibition at 0.25 µM (N-type calcium channel; [2]): 64%; inhibition at 0.25 µM (N-type calcium channel; [3]): 57%
"COc1ccccc1-n1nc2c(c1-c1ccc(Cl)cc1)CN(S(=O)(=O)N(C)C)C2 [Cpd 33, 3-(4-Chlorophenyl)-2-(2-methoxyphenyl)-N,N-dimethyl-2,6-dihydropyrrolo[3,4-c]pyrazole-5(4H)-sulfonamide]",9,78,74,
